Patent publication US20140121103A1, “COMPOSITIONS COMPRISING FUNGICIDAL SUBSTITUTED DITHIINES AND FURTHER ACTIVES” (BASF SE, priority 2011, published 2014)
Like-named read-outs stand apart in the source and are kept apart here.

Experiments:
Assay type in all cases: cell-based
Alternaria solani = test: Activity against early blight caused by Alternaria solani (microtiter plate); details: active alone
Leptosphaeria nodorum = test: Activity against wheat leaf spots caused by Leptosphaeria nodorum (microtiter plate)
Botrytis cinerea = test: Activity against the grey mold Botrytis cinerea in the microtiterplate test; details: active alone
Septoria tritici = test: Activity against leaf blotch on wheat caused by Septoria tritici (microtiter plate); details: active alone
Pyricularia oryzae = details: active alone
[1] = Parastagonospora nodorum, 168 h, active alone, read-out: Observed efficacy

What does the source list for `N#Cc1c(Cl)c(Cl)c(Cl)c(C#N)c1Cl` [Chlorothalonil]?
Observed efficacy (Alternaria solani; 1 ppm): 17%; inhibition of growth at 1 ppm (Leptosphaeria nodorum; [1]): 22%; Observed efficacy (Botrytis cinerea; 4 ppm): 58%

With `N#CC1=C(C#N)SC(C#N)=C(C#N)S1` [Compound I.A, 2,3,5,6-tetracyano-[1,4]dithiine] as the compound, how does the Observed efficacy (Alternaria solani; 1 ppm) read?
The Observed efficacy was 11%.

What about the Observed efficacy (Alternaria solani; 4 ppm) of the same compound?
Its Observed efficacy is 46%.

What about the inhibition of growth at 4 ppm (Leptosphaeria nodorum; Parastagonospora nodorum, 168 h, read-out: Observed efficacy) of the same compound?
Its inhibition of growth at 4 ppm is 53%.

And the inhibition of growth at 1 ppm (Leptosphaeria nodorum; [1])?
Its inhibition of growth at 1 ppm is 7%.

What about the Observed efficacy (Botrytis cinerea; 0.063 ppm) of the same compound?
Its Observed efficacy is 1%.

And the Observed efficacy (Botrytis cinerea; 4 ppm)?
Its Observed efficacy is 14%.

And the Observed efficacy (Septoria tritici; 0.016 ppm)?
Its Observed efficacy is 8%.

And the Observed efficacy (Septoria tritici; 1 ppm)?
The Observed efficacy was 18%.

And the Observed efficacy (Septoria tritici; 4 ppm)?
Its Observed efficacy is 74%.

And the Observed efficacy (Pyricularia oryzae; 4 ppm)?
The Observed efficacy was 20%.

`OC(Cc1ccccc1Cl)(Cn1nc[nH]c1=S)C1(Cl)CC1` (centres unmarked) [Prothioconazol] was tested. Which inhibition of growth at 1 ppm (Leptosphaeria nodorum; [1]) did it give?
The inhibition of growth at 1 ppm was 52%.

With `CC(C)NC(=O)N1CC(=O)N(c2cc(Cl)cc(Cl)c2)C1=O` [Iprodion] as the compound, how does the inhibition of growth at 4 ppm (Leptosphaeria nodorum; Parastagonospora nodorum, 168 h, active alone, 4 ppm, read-out: Observed efficacy) read?
The inhibition of growth at 4 ppm was 54%.

And the Observed efficacy (Septoria tritici; 4 ppm)?
The Observed efficacy was 0%.

What about the Observed efficacy (Pyricularia oryzae; 4 ppm) of the same compound?
Its Observed efficacy is 29%.

With `Cc1cc(C)nc(Nc2ccccc2)n1` [Pyrimethanil] as the compound, how does the Observed efficacy (Pyricularia oryzae; 16 ppm) read?
Its Observed efficacy is 72%.

`CC1(C(=O)Nc2ccc(O)c(Cl)c2Cl)CCCCC1` [Fenhexamid] was tested. Which inhibition of growth at 16 ppm (Leptosphaeria nodorum; [1]) did it give?
The inhibition of growth at 16 ppm was 37%.

And the Observed efficacy (Septoria tritici; 16 ppm)?
Its Observed efficacy is 28%.

Which results are given for `O=C(Nc1ccccc1-c1ccc(Cl)cc1)c1cccnc1Cl` [Boscalid]?
inhibition of growth at 16 ppm (Leptosphaeria nodorum; [1]): 25%; Observed efficacy (Pyricularia oryzae; 16 ppm): 6%

For `CCCN(CCOc1c(Cl)cc(Cl)cc1Cl)C(=O)n1ccnc1` [Prochloraz], which Observed efficacy (Septoria tritici; 0.063 ppm) is on record?
Its Observed efficacy is 20%.

`COC(=O)Nc1nc2ccccc2[nH]1` [Carbendazim] was tested. Which Observed efficacy (Alternaria solani; 4 ppm) did it give?
The Observed efficacy was 35%.

And the Observed efficacy (Botrytis cinerea; 0.063 ppm)?
The Observed efficacy was 75%.

What about the Observed efficacy (Septoria tritici; 0.016 ppm) of the same compound?
Its Observed efficacy is 0%.

Which Observed efficacy (Leptosphaeria nodorum; active alone, 4 ppm) does the source give for `CC(C)[C@H](NC(=O)O)C(=O)N[C@H](C)c1nc2ccc(F)cc2s1` [Benthiavalicarb] here?
The Observed efficacy was 27%.

What about the Observed efficacy (Septoria tritici; 4 ppm) of the same compound?
The Observed efficacy was 10%.

What about the Observed efficacy (Pyricularia oryzae; 4 ppm) of the same compound?
The Observed efficacy was 3%.

How did the inhibition of growth at 0.25 ppm (Leptosphaeria nodorum; Parastagonospora nodorum, 168 h, active alone, 0.25 ppm, read-out: Observed efficacy) turn out when `COC(=O)N(OC)c1ccccc1COc1ccn(-c2ccc(Cl)cc2)n1` [Pyraclostrobin] was run?
The inhibition of growth at 0.25 ppm was 57%.

`CCCCCCCCc1c(CC)nc2ncnn2c1N` [Ametoctradin] was tested. Which Observed efficacy (Alternaria solani; 4 ppm) did it give?
The Observed efficacy was 4%.

What about the Observed efficacy (Leptosphaeria nodorum; active alone, 4 ppm) of the same compound?
Its Observed efficacy is 31%.

What about the Observed efficacy (Septoria tritici; 4 ppm) of the same compound?
The Observed efficacy was 13%.

And the Observed efficacy (Pyricularia oryzae; 4 ppm)?
Its Observed efficacy is 12%.

What does the source list for `Cn1cc(C(=O)Nc2ccccc2-c2cc(F)c(F)c(F)c2)c(C(F)F)n1` [Fluxapyroxad]?
Observed efficacy (Leptosphaeria nodorum; active alone, 0.063 ppm): 23%; Observed efficacy (Pyricularia oryzae; 0.063 ppm): 7%

For `COCC(=O)N(c1c(C)cccc1C)[C@H](C)C(=O)OC` [Metalaxyl-M], which Observed efficacy (Leptosphaeria nodorum; active alone, 4 ppm) is on record?
The Observed efficacy was 26%.

What about the Observed efficacy (Septoria tritici; 4 ppm) of the same compound?
The Observed efficacy was 11%.

What about the Observed efficacy (Pyricularia oryzae; 4 ppm) of the same compound?
The Observed efficacy was 8%.

`Cc1ccc(-c2c(Cl)nc(C#N)n2S(=O)(=O)N(C)C)cc1` [Cyazofamid] was tested. Which inhibition of growth at 1 ppm (Leptosphaeria nodorum; [1]) did it give?
Its inhibition of growth at 1 ppm is 25%.

What about the Observed efficacy (Septoria tritici; 1 ppm) of the same compound?
The Observed efficacy was 2%.

What about the Observed efficacy (Pyricularia oryzae; 1 ppm) of the same compound?
The Observed efficacy was 8%.

How did the Observed efficacy (Septoria tritici; 0.25 ppm) turn out when `CO/C=C(/C(=O)OC)c1ccccc1Oc1cc(Oc2ccccc2C#N)ncn1` [Azoxystrobin] was run?
Its Observed efficacy is 65%.

For `CC(C)(C)C(O)(CCc1ccc(Cl)cc1)Cn1cncn1` (centres unmarked) [Tebuconazol], which Observed efficacy (Septoria tritici; 0.25 ppm) is on record?
The Observed efficacy was 54%.

Which Observed efficacy (Pyricularia oryzae; 1 ppm) does the source give for `CC1COC(Cn2cncn2)(c2ccc(Oc3ccc(Cl)cc3)cc2Cl)O1` (centres unmarked) [Difenoconazol] here?
Its Observed efficacy is 27%.

`Cc1ccc(C(C)NC(=O)[C@@H](NC(=O)OC(C)C)C(C)C)cc1` (some centres unmarked) [Iprovalicarb] was tested. Which Observed efficacy (Septoria tritici; 4 ppm) did it give?
The Observed efficacy was 13%.

And the Observed efficacy (Pyricularia oryzae; 4 ppm)?
The Observed efficacy was 6%.
